The record followed here is US20190330167A1, “ACTIVATORS OF HIV LATENCY” (priority 2016, published 2019).

In the first experiment the test system is HIV-1 long terminal repeat (LTR)-driven luciferase reporter gene in FlipIn.FM HEK293 cells. Kind of experiment: cells. To be noted: HIV-LTR driven latent reporter; 11-point, 2-fold dilution series, highest concentration 40 μM; read-out: Latent reporter Av EC50. The experiment is classed as cell-based. How it is done:
FIG. 44. […] The FlipIn.FM model of HIV-1 latency was treated with JQ1 (+) and DP#14 (Compound 7) alone at 10 μM and in combination, and the HIV-1 gene expression measured 48 hrs post treatment. Error bars represent standard deviation of n=3 experiments. OPTI represents media alone, without DP#14.
FIG. 46. […] The FlipIn.FM model of HIV-1 latency was treated with PFI-1 and DP#14 alone at 10 μM and in combination, and the HIV-1 gene expression measured 48 hrs post treatment. Error bars represent standard deviation of n=3 experiments. OPTI represents media alone, without DP#14.
Explicitly, HEK293 derived FlipIn-FM and FlipIn-RV dual reporter cells each include a single stable HIV-1 long terminal repeat (LTR)-driven luciferase reporter genes, with a second complimentary non-HIV (off-target) luciferase reporter. These cell lines model post integration latency and read-through transcription by expressing a low level of HIV-1 Tat protein via a native Internal Ribosome Entry Site (IRES) found within Tat, from a chimeric cellular-tat gene cassette. FlipIn-FM and FlipIn-RV clones were chosen for low basal levels of LTR activity and high responsiveness to Tat as well as many Latency Reversing Agents (LRAs).
The dual reporter cell lines contain three stably integrated constructs that together allow for detection of novel LRAs, capable of potent and specific HIV reactivation. The FlipIn.FM line contains a proviral LTR-driven nef/CBR reporter fusion gene, allowing for detection of viral gene expression. A second CMV-driven CBG luciferase reporter allows for detection of off target drug effects, including non-specific activation and drug toxicity. The third construct contains the first coding exon of HIV-1 tat, within human Growth Hormone (hGH) as a chimeric gene, expressing HIV-1 Tat protein from an IRES mechanism that underlies the tat exon. This construct models read-through transcription and the low level of Tat protein expression that occurs during post integration latency. The counter screening reverse cell line, FlipIn.RV, contains the same three components with the Click Beetle Luciferase genes in the opposite orientation (LTR-CBG and CMV-CBR) for counter screening.
Compounds were evaluated in an 11-point titration using normal CMV-CBG/LTR-CBR reporter cell line and an 11 point reverse CMV-CBR/LTR-CBG reporter cell line.
The FlipIn cell lines were therefore designed with a dual purpose, to detect novel compounds that reactivate HIV-1 and to also screen out compounds that behaved in a largely non-specific manner. To achieve the latter, the cell lines contain an “off target” reporter gene construct, driven by the unrelated CMV-IE promoter, that allows for the detection of drug mediated off target effects including global gene activation as well as possible toxicity.
The HIV-LTR driven latent reporter gene identifies the HIV-specific activation, and the term “global reporter” is interchangeable with “off target reporter” and refers to the unrelated CMV-IE promoter driven reporter gene, which is used as a surrogate for global gene activation. […] The highest concentration tested here was 40 μM.
Broadly, the EC50 is the concentration that produces a half-maximal response. As to `Cc1cnc(NC(=O)CCCOc2ccc(Cl)c(C)c2)s1` [Compound 1], the EC50 was 4.88 µM.

Still in this experiment, the particulars now being: Human immunodeficiency virus 1, HEK293, HIV-LTR driven latent reporter; 11-point, 2-fold dilution series, highest concentration 40 μM; read-out: Latent reporter Av EC50.
In the case of `O=C(Nc1ncc(Cl)s1)N1CCCN(c2ccc(Cl)c(Cl)c2)CC1` [Compound 75], the EC50 amounted to 5.46 µM.

Regarding `Cc1cnc(NC(=O)CCCOc2cccc(C=O)c2)s1` [Compound 49], the EC50 was determined as 2.64 µM.

As for `Cc1cc(OCCCC(=O)Nc2ncc(Cl)s2)ccc1Cl` [Compound 20], the EC50 came out at 1.85 µM.

Turning to `Cc1cc(OCCC(=O)Nc2ncc(Cl)s2)ccc1Cl` [Compound 83], the EC50 is 2.2 µM.

As for `COc1ccc(NC(=O)CCCOc2ccc(Cl)c(C)c2)nc1` [Compound 55], the EC50 turned out to be 17.9 µM.

`Cc1cc(OCCCC(=O)Nc2ncc(Br)s2)ccc1Cl` [Compound 17]: the EC50 turned out to be 2.83 µM.

As for `Cc1cc(OCCCC(=O)Nc2ccc(Cl)cn2)ccc1Cl` [Compound 54], the EC50 stood at 19.4 µM.

As to `O=C(CCCOc1ccccc1)Nc1ncc(Cl)s1` [Compound 8], the EC50 worked out at 1.99 µM.

For the compound `O=C(CCCOc1ccc(Br)c(Cl)c1)Nc1ncc(Cl)s1` [Compound 18], the EC50 turned out to be 2.83 µM.

Take `Cc1cnc(NC(=O)N2CCN(c3ccc(Cl)c(Cl)c3)CC2)s1` [Compound 66]: the EC50 is 0.58 µM.

`Cc1cnc(NC(=O)CCCOc2ccc(Br)c(Cl)c2)s1` [Compound 14]: the EC50 turned out to be 3.09 µM.

For the compound `Cc1cnc(NC(=O)CCCN(C)c2ccccc2)s1` [Compound 56], the EC50 came out at 14.8 µM.

As for `CC(C)c1cnc(NC(=O)CCCOc2ccccc2)s1` [Compound 52], the EC50 turned out to be 3.8 µM.

Take `Cc1cnc(NC(=O)N2CCC(Nc3ccc(Cl)c(C)c3)C2)s1` (centres unmarked) [Compound 80]: the EC50 stood at 10.1 µM.

Take `Cc1cnc(NC(=O)CCCOc2cccc(C(F)(F)F)c2)s1` [Compound 47]: the EC50 is 6.55 µM.

For `O=C(CCCOc1ccc(Cl)c(Cl)c1)Nc1ncc(Br)s1` [Compound 16], the EC50 came out at 1.23 µM.

Regarding `N#Cc1cnc(NC(=O)CCCOc2ccccc2)s1` [Compound 5], the EC50 was 3.48 µM.

`Cc1cc(N2CCN(C(=O)Nc3ncc(Cl)s3)CC2)ncc1C#N` [Compound 72]: the concentration giving a half-maximal response (EC50) amounted to 0.25 µM.

Take `Cc1ccc(N2CCC(C(=O)Nc3ncc(C#N)s3)CC2)cc1Cl` [Compound 79]: the EC50 stood at 3.83 µM.

Consider `Cc1ccc(OCCCc2nc3cc(Br)cnc3[nH]2)cc1Cl` [Compound 77], for which the EC50 was found to be 3.97 µM.

On to `CCc1cnc(NC(=O)CCCOc2ccc(Br)c(Cl)c2)s1` [Compound 22], for which the EC50 was 2.01 µM.

For the compound `Cc1cc(OCCCC(=O)Nc2ncc(C(F)(F)F)s2)ccc1Cl` [Compound 62], the EC50 was determined as 4.74 µM.

Consider `Cc1cc(NC2CCN(C(=O)Nc3ncc(Cl)s3)C2)ccc1Cl` (centres unmarked) [Compound 81], for which the EC50 was found to be 1.5 µM.

With `O=C(CCCOc1ccc(Br)c(Cl)c1)Nc1ncc(Br)s1` [Compound 15], the EC50 was 2.56 µM.

Regarding `Cc1cnc(NC(=O)CCCNc2ccc(Cl)c(C)c2)s1` [Compound 57], the concentration for a half-maximal effect (EC50) was 1.7 µM.

Take `Cc1cnc(NC(=O)CCCCc2ccccc2)s1` [Compound 4]: the EC50 amounted to 9.26 µM.

As to `Cc1cc(OCCCC(=O)Cc2ncc(C(C)C)s2)ccc1Cl` [Compound 61], the EC50 was 4.29 µM.

Take `O=C(CCCOc1ccccc1)Nc1ncc(C(F)(F)F)s1` [Compound 51]: the concentration for a half-maximal effect (EC50) stood at 2.37 µM.

On to `Cc1cnc(NC(=O)CCCOc2ccc(Cl)c(Cl)c2)s1` [Compound 12], for which the EC50 worked out at 3.22 µM.

For the compound `Cc1cc(N2CCN(C(=O)Nc3ncc(Cl)s3)CC2)ccc1Cl` [Compound 70], the EC50 was found to be 0.21 µM.

On to `O=C(CCCOc1ccccc1)Nc1ccc(Br)cn1` [Compound 29], for which the EC50 is 7.6 µM.

Regarding `Cc1cnc(NC(=O)CCCOc2ccc(Cl)c(C(F)(F)F)c2)s1` [Compound 38], the EC50 stood at 5.07 µM.

As to `O=C(CCCOc1ccccc1)Nc1ccc(C(F)(F)F)cn1` [Compound 30], the concentration giving a half-maximal response (EC50) was 9.74 µM.

`N#Cc1cnc(NC(=O)CCCOc2ccc(Br)c(Cl)c2)s1` [Compound 21]: the EC50 was determined as 2.12 µM.

Turning to `Cc1cnc(NC(=O)CCCOc2cccc([N+](=O)[O-])c2)s1` [Compound 45], the EC50 was 5.29 µM.

Regarding `Cc1cc(N2CCN(C(=O)Nc3ncc(C#N)s3)CC2)ccc1Cl` [Compound 71], the EC50 is 0.88 µM.

As for `Cc1cnc(NC(=O)CCCN(C)c2ccc(Cl)c(C)c2)s1` [Compound 59], the EC50 amounted to 1.11 µM.

In the case of `Cc1cnc(NC(=O)CCCOc2cccc(CO)c2)s1` [Compound 48], the EC50 was determined as 4.13 µM.

`Cc1ccc(N2CCCN(C(=O)Nc3ncc(Cl)s3)CC2)cc1Cl` [Compound 74]: the EC50 stood at 5.2 µM.

For `O=C(CCCOc1ccccc1)Nc1ccc(Cl)cn1` [Compound 40], the EC50 was 6.86 µM.

For `O=C(Nc1ncc(Cl)s1)N1CCN(c2ccc(Cl)c(Cl)c2)CC1` [Compound 67], the half-maximal effective concentration (EC50) stood at 0.27 µM.

For the compound `COc1cccc(OCCCC(=O)Nc2ncc(C)s2)c1` [Compound 44], the EC50 stood at 5.3 µM.

For the compound `Cc1cnc(NC(=O)N2CCN(c3ccc(C)c(Cl)c3)CC2)s1` [Compound 63], the half-maximal effective concentration (EC50) amounted to 0.45 µM.

As for `Cc1cnc2[nH]c(CCCOc3ccc(C)c(Cl)c3)nc2c1` [Compound 76], the EC50 is 7.75 µM.

As to `COc1ccccc1OCCCC(=O)Nc1ncc(C)s1` [Compound 42], the EC50 is 1.42 µM.

Take `N#Cc1cnc(NC(=O)N2CCN(c3ccc(Cl)c(Cl)c3)CC2)s1` [Compound 68]: the EC50 is 0.52 µM.

Regarding `Cc1cnc(NC(=O)CCCOc2ccc(Cl)c(C)c2)s1` [Compound 36], the EC50 stood at 4.2 µM.

Take `O=C(CCCOc1ccc(Cl)c(Cl)c1)Nc1ncc(Cl)s1` [Compound 19]: the concentration giving a half-maximal response (EC50) was found to be 1.48 µM.

Consider `Cc1cnc(NC(=O)N2CCN(c3ccc(Cl)c(C)c3)CC2)s1` [Compound 69], for which the EC50 worked out at 0.34 µM.

For the compound `Cc1cnc(NC(=O)CCCOc2cccc(O)c2)s1` [Compound 43], the EC50 was determined as 12.5 µM.

With `Cc1ccc(OCCCC(=O)Nc2ncc(Cl)s2)cc1Cl` [Compound 60], the 50% effective concentration (EC50) came out at 3.56 µM.

In the case of `Cc1cnc(NC(=O)CCCOc2cccc(Cl)c2)s1` [Compound 46], the 50% effective concentration (EC50) amounted to 5.23 µM.

As to `Cc1cnc(NC(=O)CCCNc2ccc(Cl)c(C(F)(F)F)c2)s1` [Compound 58], the EC50 was 2 µM.

For the compound `CCc1cnc(NC(=O)CCCOc2ccccc2)s1` [Compound 6], the EC50 was 1.09 µM.

As to `Cc1ccc(N2CCC(C(=O)Nc3ncc(Cl)s3)CC2)cc1Cl` [Compound 78], the EC50 worked out at 11.4 µM.
